In patent US12097173B2, “Volatile organic compound formulations having antimicrobial activity” (priority 2019, dated 2024):

How the values were obtained:
Format in all cases: cell-based
Fusarium subglutinans = experiment: plate bioassay of volatile test mixtures, growth inhibition; conditions: 30 hr at 22° C.; esters with 1:1 v/v propanoic acid and isobutryic acid (acids to ester 7:2 v/v), 9 ul; acids 7 ul
Protocol: (§1) FIG. 1 illustrates a plate bioassay to determine the bioactivity of various esters when combined with a 1:1 mix of the two organic acids as per Table 2. The test organisms were as follows—Cercospora (dark-lower left bottom) then clockwise—Phytophthora, Verticillium, Sclerotinia, Pythium. Fusarium, Trichoderma, Rhizoctonia, and Aspergillus. The streaks were Saccharomyces (far right bottom) then Candida, E coli and Bacillus (left bottom). A=control plate, and B=plate with System 1 after incubation for 30 hr.
(§2) FIG. 1. Indicates how the assays were done to yield the data sets in Table 1. The various esters were combined with a 1:1 mixture of propanoic acid and isobutryic acid and these were added 7:2 V/V with the ester to be tested.
(§3) Shown in Table 1, are the inhibition and killing effects of propanoic acid, and isobutryic acid together and alone and with various esters. The tests were conducted over the course of 30 hr at 22° C. Measurements were made on appropriate controls and thus the percentage of inhibition calculations could be made on treatments vs the growth on a control organism (non-treated). The bacteria and yeast like organisms were evaluated on the basis of relative growth rates after 30 hr. Those highlighted areas on the table show those compounds (esters) having the most compatibility with propanoic and isobutryic acid 1:1 v/v mixtures with the appropriate esters at a 7:2 ratio—Systems 1 and 2 above. It is from this test that Systems 1 and 2 were discovered. The acids were added at […] individually and combination of the esters with the acids were added at the […] in the plate assay.

Aspergillus fumigatus = experiment: as above; conditions: 30 hr at 22° C.; esters with 1:1 v/v propanoic acid and isobutryic acid (acids to ester 7:2 v/v), 9 ul; acids 7 ul
Protocol: as §1, §2, §3

Candida albicans = experiment: plate bioassay of volatile test mixtures, relative growth of streak; conditions: relative growth after 30 hr at 22° C.; esters with 1:1 v/v propanoic acid and isobutryic acid (7:2 v/v), 9 ul; acids 7 ul
Protocol: as §1
(§4) FIG. 9 depicts the biological activities of various test mixtures against a panel of test microbes. A small plug of each organism was placed in the periphery of the PDA plate. In the center well was placed the test solution in the plastic cup holder. A control plate (A) was also set up. After 30 hr the growth of the test organisms was compared to that of the control and the % inhibition was calculated. The (B) plate contained the test mixture. Measurements were made 30 hr after plate set up.
as §2, §3
as §4, with “Tests were conducted as similarly described for Systems 1 and 2 above (FIG. 9) to ascertain” for “FIG. 9 depicts”

Saccharomyces cerevicae = experiment: as above; conditions: relative growth after 30 hr at 22° C.; esters with 1:1 v/v propanoic acid and isobutryic acid (7:2 v/v), 9 ul; acids 7 ul
Protocol: as §1, §4, §2, §3
as §4, with “Tests were conducted as similarly described for Systems 1 and 2 above (FIG. 9) to ascertain” for “FIG. 9 depicts”

Bacillus subtilus = experiment: as above; conditions: relative growth after 30 hr at 22° C.; esters with 1:1 v/v propanoic acid and isobutryic acid (7:2 v/v), 9 ul; acids 7 ul
Protocol: as §1, §4, §2, §3
as §4, with “Tests were conducted as similarly described for Systems 1 and 2 above (FIG. 9) to ascertain” for “FIG. 9 depicts”

Escherichia coli = experiment: as above; conditions: relative growth after 30 hr at 22° C.; esters with 1:1 v/v propanoic acid and isobutryic acid (7:2 v/v), 9 ul; acids 7 ul
Protocol: as §1, §4, §2, §3
as §4, with “Tests were conducted as similarly described for Systems 1 and 2 above (FIG. 9) to ascertain” for “FIG. 9 depicts”

Verticillium dahliae = experiment: plate bioassay of volatile test mixtures, growth inhibition; conditions: 30 hr at 22° C.; esters with 1:1 v/v propanoic acid and isobutryic acid (acids to ester 7:2 v/v), 9 ul; acids 7 ul
Protocol: as §1, §4, §2, §3
as §4, with “Tests were conducted as similarly described for Systems 1 and 2 above (FIG. 9) to ascertain” for “FIG. 9 depicts”

Cercospora beticola = experiment: as above; conditions: 30 hr at 22° C.; esters with 1:1 v/v propanoic acid and isobutryic acid (acids to ester 7:2 v/v), 9 ul; acids 7 ul
Protocol: as §1, §4, §2, §3
as §4, with “Tests were conducted as similarly described for Systems 1 and 2 above (FIG. 9) to ascertain” for “FIG. 9 depicts”

Trichoderma viridae = experiment: as above; conditions: 30 hr at 22° C.; esters with 1:1 v/v propanoic acid and isobutryic acid (acids to ester 7:2 v/v), 9 ul; acids 7 ul
Protocol: as §1, §4, §2, §3
as §4, with “Tests were conducted as similarly described for Systems 1 and 2 above (FIG. 9) to ascertain” for “FIG. 9 depicts”

Rhizoctonia solani = experiment: as above; conditions: 30 hr at 22° C.; esters with 1:1 v/v propanoic acid and isobutryic acid (acids to ester 7:2 v/v), 9 ul; acids 7 ul
Protocol: as §1, §4, §2, §3
as §4, with “Tests were conducted as similarly described for Systems 1 and 2 above (FIG. 9) to ascertain” for “FIG. 9 depicts”

Phytophthora cinnamomi = experiment: as above; conditions: 30 hr at 22° C.; esters with 1:1 v/v propanoic acid and isobutryic acid (acids to ester 7:2 v/v), 9 ul; acids 7 ul
Protocol: as §1, §4, §2, §3
as §4, with “Tests were conducted as similarly described for Systems 1 and 2 above (FIG. 9) to ascertain” for “FIG. 9 depicts”

Pythium ultimum = experiment: as above; conditions: 30 hr at 22° C.; esters with 1:1 v/v propanoic acid and isobutryic acid (acids to ester 7:2 v/v), 9 ul; acids 7 ul
Protocol: as §1, §4, §2, §3
as §4, with “Tests were conducted as similarly described for Systems 1 and 2 above (FIG. 9) to ascertain” for “FIG. 9 depicts”

Sclerotinia sclerotiorum = experiment: as above; conditions: 30 hr at 22° C.; esters with 1:1 v/v propanoic acid and isobutryic acid (acids to ester 7:2 v/v), 9 ul; acids 7 ul
Protocol: as §1, §4, §2
The tests were conducted over the course of 30 hr at 22° C. Measurements were made on appropriate controls and thus the percentage of inhibition calculations could be made on treatments vs the growth on a control organism (non-treated). The bacteria and yeast like organisms were evaluated on the basis of relative growth rates after 30 hr. […] The acids were added at […] individually and combination of the esters with the acids were added at the […] in the plate assay.
as §4, with “Tests were conducted as similarly described for Systems 1 and 2 above (FIG. 9) to ascertain” for “FIG. 9 depicts”

SMILES	inhibition of Fusarium subglutinans (Fusarium subglutinans) [%]	inhibition of Aspergillus fumigatus (Aspergillus fumigatus) [%]	growth of Candida albicans (Candida albicans)	growth of Saccharomyces cerevicae (Saccharomyces cerevicae)	growth of Bacillus subtilus (Bacillus subtilus)	growth of Escherichia coli (Escherichia coli)	inhibition of Verticillium dahliae (Verticillium dahliae) [%]	inhibition of Cercospora beticola (Cercospora beticola) [%]	inhibition of Trichoderma viridae (Trichoderma viridae) [%]	inhibition of Rhizoctonia solani (Rhizoctonia solani) [%]	inhibition of Phytophthora cinnamomi (Phytophthora cinnamomi) [%]	inhibition of Pythium ultimum (Pythium ultimum) [%]	inhibition of Sclerotinia sclerotiorum (Sclerotinia sclerotiorum) [%]
CC(C)COC(=O)C(C)C [Isobutyl Isobutyrate]	50	80	Growth Observed	Growth Observed	Inhibited	Inhibited	92	95	47	86	0	100	75
CCCC(=O)OCC(C)C [Isobutyl Butyrate]	33	0	Growth Observed	Growth Observed	No Growth	No Growth	96	100	47	100	33	100	70
CC(C)C(=O)O [Isobutyric Acid, reference compound]	67	90	Growth Observed	Growth Observed	No Growth	No Growth	90	95	27	86	100	100	40
CC(C)CCOC(=O)C(C)C [Isoamyl Isobutyrate]	67	80	Growth Observed	Growth Observed	No Growth	No Growth	96	95	67	100	97	100	80
CC(C)OC(=O)C(C)C [Isopropyl Isobutyrate]	33	0	Growth Observed	Growth Observed	No Growth	No Growth	96	95	20	43	−33	100	30
CCC(=O)OCC(C)C [Isobutyl Propionate]	67	80	Growth Observed	Growth Observed	No Growth	No Growth	88	100	40	100	33	100	80
CC(C)COC(=O)CC(C)C [Isobutyl Isovalerate]	67	0	Growth Observed	Growth Observed	Inhibited	Inhibited	96	95	20	94	100	100	0
CCOC(=O)C(C)C [Ethyl Isobutyrate]	67	80	Growth Observed	Growth Observed	No Growth	No Growth	80	95	67	100	100	100	90
CCCCOC(=O)C(C)C [Butyl Isobutyrate]	0	0	Growth Observed	Growth Observed	No Growth	No Growth	60	95	40	97	0	100	0
CC(=O)OCC(C)C [Isobutyl Acetate]	67	0	Growth Observed	Growth Observed	Inhibited	Inhibited	60	95	20	57	67	100	20
CCCOC(=O)C(C)C [Propyl Isobutyrate]	50	50	Growth Observed	Growth Observed	Inhibited	Inhibited	88	95	33	97	87	98	40
CCCC(=O)OCCC(C)C [Isoamyl Butyrate]	100	90	No Growth	Growth Observed	No Growth	No Growth	100	100	90	100	100	100	95
